Data from patent publication US20080161248A1, “Methods and Compositions for Therapeutic Treatment” (priority 2006, published 2008).

What was measured:
[1] = cited from earlier work
[2] = liver transplantation, European study, 12-month post-transplant; cited from earlier work
[3] = cited from earlier work; remark: listed apart in the source
[4] = mice, mdr1 gene depleted; cited from earlier work
[5] = test system: mouse spleen cells, response to Con A; assay: In vitro Con A assay on spleen cells; type: cell-based; conditions: high ([…]10^6 cells/well) and low (8×10^5 cells/well) cell concentration
Excerpt: Animals: 8-9 weeks-old Lewis and Brown Norway male rats were obtained from Charles River Laboratories. General procedures for animal care and housing was in accordance with the National Research Council (NRC) Guide for the Care and Use of Laboratory Animals (1996) and the Animal Welfare Standards incorporated in 9 CFR Part 3, 1991.
Spleens were collected for use in in vitro Con A and LPS assays.
Results: FIGS. 8 and 9 show the effect of quercetin and tacrolimus on response of mouse spleen cells to Con A at a high (1.6×10^6 cells/well) and low (8×10^5 cells/well) cell concentration, respectively.
Spleen cells were treated with Con A in the presence of vehicle, tacrolimus, quercetin or two different concentrations of tacrolimus (10^−8.2 and 10^−8.5 M) and increasing doses of quercetin at a high cell concentration (FIG. 14) or at a low cell concentration (FIG. 15). […] There was no significance difference between the effect of quercetin on tacrolimus induced cell suppression in vitro at the different concentrations used for quercetin.

## C=CC[C@@H]1/C=C(\C)C[C@H](C)C[C@H](OC)C2O[C@@](O)(C(=O)C(=O)N3CCCC[C@H]3C(=O)O[C@H](/C(C)=C/[C@@H]3CC[C@@H](O)[C@H](OC)C3)[C@H](C)[C@@H](O)CC1=O)[C@H](C)C[C@@H]2OC (relative stereo) [Prograf, [3S-[3R[E(1S*,3S*,4S*)], 4S*,5R*,8S*,9E,12R*,14R*,15S*,16R*,18S*,19S*,26aR*]]-,6,8,11,12,13,14,15,16,17,18,19,24,25,26,26a-hexadecahydro-5,19-dihydroxy-3-[2-(4-hydroxy-3-methoxycyclohexyl)-1-methylethenyl]-14,16-dimethoxy-4,10,12,18-tetramethyl-8-(2-propenyl)-15,19-epoxy-3H-pyrido[2,1-c][1,4]oxaazacyclotricosine-1,7,20,21 (4H,23H)-tetrone, monohydrate]
[1]
  erythrocyte and plasma protein binding: extensive
[2]
  Adverse event: Abdominal Pain: 29%
  Adverse event: Anemia: 5%
  Adverse event: Anorexia: 7%
  Adverse event: Ascites: 7%
  Adverse event: Asthenia: 11%
  Adverse event: Atelectasis: 5%
  Adverse event: BUN Increased: 12%
  Adverse event: Back Pain: 17%
  Adverse event: Constipation: 23%
  Adverse event: Creatinine Increased: 24%
  Adverse event: Diarrhea: 37%
  Adverse event: Dyspnea: 5%
  Adverse event: Fever: 19%
  Adverse event: Headache: 37%
  Adverse event: Hyperglycemia: 33%
  Adverse event: Hyperkalemia: 13%
  Adverse event: Hypertension: 38%
  Adverse event: Hypokalemia: 13%
  Adverse event: Hypomagnesemia: 16%
  Adverse event: Insomnia: 32%
  Adverse event: Kidney Function Abnormal: 36%
  Adverse event: LFT Abnormal: 6%
  Adverse event: Leukocytosis: 8%
  Adverse event: Nausea: 32%
  Adverse event: Oliguria: 19%
  Adverse event: Pain: 24%
  Adverse event: Paresthesia: 17%
  Adverse event: Peripheral Edema: 12%
  Adverse event: Pleural Effusion: 36%
  Adverse event: Pruritus: 15%
  Adverse event: Rash: 10%
  Adverse event: Thrombocytopenia: 14%
  Adverse event: Tremor: 48%
  Adverse event: Urinary Tract Infection: 21%
  Adverse event: Vomiting: 14%
[3]
  aqueous solubility: poor
[4]
  concentration in the brain: markedly increased
[5]
  effect on response of spleen cells to Con A (proliferation): inhibited Con A-induced proliferation in a dose dependent manner
